Some test systems named below: SF-539 CNS; IGROV1 ovarian; HCC-2998 colon; SK-OV-3 ovarian; NCI-H460 lung; HT29 colon; OVCAR-4 ovarian; SF-295 CNS; UACC-257 melanoma; A498 renal.
Test in all cases: DTP human tumour cell line panel, 48 h

SMILES strings stand for the structures. “And” between values parts separate entries of the source, which are not always exact repeats. Identical values can stand only once.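 Interpolation was linear, between the two tested concentrations surrounding the appropriate level; five concentrations were tested over 48 hours in 96-well plates. The concentration for 50% growth inhibition is given as GI50. TGI marks complete inhibition of growth.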

Regarding `O=C1C(Cl)=C(Nc2cccc(O)c2)C(=O)N1c1cc(Cl)c(Cl)cc1Cl`, the GI50 in the assay with SF-539 CNS is 14.9 µM; in the assay on IGROV1 ovarian it was 8.87 µM; with HCC-2998 colon, 19.1 µM; with SK-OV-3 ovarian, 20.8 µM; in the assay with NCI-H460 lung, 18 µM; in the assay with HT29 colon it was 18 µM. The GI50 in the assay on OVCAR-4 ovarian was 22.7 µM; in the assay with SF-295 CNS, 20.6 µM; in the assay with UACC-257 melanoma, 30.3 µM. Also, the TGI is 34.3 µM with SF-539 CNS; 21.2 µM with IGROV1 ovarian; 34.8 µM in the assay with HCC-2998 colon; 65.3 µM in the assay on SK-OV-3 ovarian; 38.4 µM with NCI-H460 lung; 40 µM with HT29 colon. Besides, the TGI in the assay with OVCAR-4 ovarian is 51.8 µM; with SF-295 CNS it was 53.2 µM; in the assay with UACC-257 melanoma, 77.2 µM; in the assay on A498 renal, 7.84 µM.
For `Nc1cc(N)c(N)cc1N`, the GI50 was 2.17 µM with SF-539 CNS; 2.17 µM in the assay on IGROV1 ovarian; 13.4 µM with HCC-2998 colon; 7.12 µM in the assay with SK-OV-3 ovarian; 10.8 µM in the assay with NCI-H460 lung; 2.42 µM with HT29 colon. In addition, the GI50 was 1.79 µM in the assay with OVCAR-4 ovarian, 1.7 µM in the assay on SF-295 CNS, 1.55 µM with UACC-257 melanoma and 1.6 µM with A498 renal. Moreover, the total growth inhibition concentration (TGI) turned out to be 5.88 µM in the assay with SF-539 CNS; 4.83 µM with IGROV1 ovarian; 27.9 µM with HCC-2998 colon; 42.2 µM in the assay on SK-OV-3 ovarian; 26.2 µM in the assay on NCI-H460 lung; 4.86 µM with HT29 colon. Moreover, the TGI was 3.35 µM in the assay with OVCAR-4 ovarian, 3.31 µM in the assay with SF-295 CNS, 3.05 µM in the assay on UACC-257 melanoma and 4.67 µM with A498 renal.
Regarding `CC(=O)c1cc([N+](=O)[O-])ccc1OCC(=O)O`, the total growth inhibition concentration (TGI) in the assay on SF-539 CNS, in the assay with IGROV1 ovarian, in the assay with HCC-2998 colon, in the assay with SK-OV-3 ovarian, with NCI-H460 lung and in the assay with HT29 colon was greater than 100 µM each time. Further, the concentration for total growth inhibition (TGI) in the assay on OVCAR-4 ovarian, in the assay on SF-295 CNS, in the assay on UACC-257 melanoma and in the assay on A498 renal was greater than 100 µM in each case.
As for `CC(=O)O[C@@H]1CC2C(C)(C)CCCC2(C)C2=C1C(=O)C(C(C)C)=CC2=O` (stereo not given in full), the GI50 is 1.17 µM with SF-539 CNS; 1.49 µM with IGROV1 ovarian; 0.405 µM with HCC-2998 colon; 3.26 µM in the assay with SK-OV-3 ovarian; 0.423 µM in the assay on NCI-H460 lung; 2.03 µM in the assay with HT29 colon. For the same compound, the GI50 in the assay with OVCAR-4 ovarian was 0.838 µM; with SF-295 CNS, 1.77 µM; in the assay on UACC-257 melanoma, 1.55 µM; with A498 renal it was 1.06 µM. Also, the TGI in the assay with SF-539 CNS is 4.05 µM; in the assay on IGROV1 ovarian it was 4.87 µM; in the assay on HCC-2998 colon it was 1.62 µM; with SK-OV-3 ovarian, 8.5 µM; in the assay with NCI-H460 lung it was 1.9 µM; with HT29 colon, 5.54 µM. The total growth inhibition concentration (TGI) amounted to 6.58 µM with OVCAR-4 ovarian, 3.61 µM in the assay on SF-295 CNS, 4.29 µM with UACC-257 melanoma and 2.35 µM in the assay on A498 renal.
Consider `O=C1C2=C(c3ccccc31)C(c1ccccc1)NC(=S)N2` (stereo not given), for which the total growth inhibition concentration (TGI) with SF-539 CNS was 46.3 µM; with IGROV1 ovarian, greater than 100 µM; in the assay on HCC-2998 colon, greater than 100 µM; in the assay on SK-OV-3 ovarian it was greater than 100 µM; with NCI-H460 lung, greater than 100 µM; in the assay on HT29 colon, greater than 100 µM. In addition, the concentration for total growth inhibition (TGI) in the assay with OVCAR-4 ovarian, in the assay with SF-295 CNS, with UACC-257 melanoma and in the assay with A498 renal was greater than 100 µM throughout.
In the case of `CC(=O)Nc1ccc2c(c1)oc(=O)c1cc(NC(C)=O)ccc12`, the GI50 with SF-539 CNS is greater than 100 µM; with IGROV1 ovarian, 83.4 µM; in the assay on HCC-2998 colon, 52.4 µM; with SK-OV-3 ovarian it was greater than 100 µM; in the assay on NCI-H460 lung, greater than 100 µM; in the assay on HT29 colon, 54 µM. Moreover, the GI50 in the assay on OVCAR-4 ovarian, in the assay on SF-295 CNS, with UACC-257 melanoma and in the assay with A498 renal was greater than 100 µM in each case. Also, the TGI in the assay on SF-539 CNS, in the assay with IGROV1 ovarian, in the assay on HCC-2998 colon, in the assay on SK-OV-3 ovarian, in the assay on NCI-H460 lung and in the assay on HT29 colon was greater than 100 µM each time. Further, the TGI with OVCAR-4 ovarian, in the assay with SF-295 CNS, in the assay on UACC-257 melanoma and with A498 renal was greater than 100 µM throughout.
In the case of `N#CC(C(=O)C(=O)NCCCNC(=O)C(=O)C(C#N)c1ccccc1)c1ccccc1` (stereo not given), the TGI with SF-539 CNS, with IGROV1 ovarian, in the assay on HCC-2998 colon, in the assay with SK-OV-3 ovarian, in the assay with NCI-H460 lung and in the assay on HT29 colon was greater than 100 µM in each case. The TGI in the assay with OVCAR-4 ovarian, in the assay on SF-295 CNS, in the assay on UACC-257 melanoma and in the assay with A498 renal was greater than 100 µM throughout.
`CN(C)c1ccc2cc(-c3ccccc3F)c(N)nc2c1`: the GI50 is 2.1 µM with SF-539 CNS; 2.81 µM with IGROV1 ovarian; 3.18 µM in the assay on HCC-2998 colon; 2.52 µM in the assay on SK-OV-3 ovarian; 2.02 µM in the assay on NCI-H460 lung; 0.529 µM in the assay on HT29 colon. Also, the GI50 in the assay on OVCAR-4 ovarian was 3.83 µM; with SF-295 CNS it was 1.04 µM; with UACC-257 melanoma it was 6.12 µM; in the assay with A498 renal it was 2.32 µM. Further, the concentration for total growth inhibition (TGI) with SF-539 CNS came out at 7.99 µM; in the assay with IGROV1 ovarian, 24.4 µM; in the assay on HCC-2998 colon, 17.6 µM; with SK-OV-3 ovarian, 12.2 µM; in the assay on NCI-H460 lung it was 13.2 µM; in the assay on HT29 colon it was 11 µM. The TGI with OVCAR-4 ovarian was determined as 36 µM; with SF-295 CNS, 12.4 µM; in the assay with UACC-257 melanoma, 18.3 µM; in the assay with A498 renal it was 15.2 µM.
Take `CCOc1ccc(NCc2cc(OC)c(OC)c(OC)c2)cc1`: the TGI with SF-539 CNS was 2.95 µM and 3.25 µM; in the assay on IGROV1 ovarian, greater than 84 µM; with HCC-2998 colon, 98.7 µM and > 50 µM; with SK-OV-3 ovarian, 22.8 µM and 24.8 µM; in the assay with NCI-H460 lung, > 100 µM and 58 µM; in the assay on HT29 colon, 8.98 µM and 11.8 µM. In addition, the TGI in the assay on OVCAR-4 ovarian is greater than 100 µM; in the assay with SF-295 CNS, 3.44 µM; with UACC-257 melanoma it was greater than 100 µM; with A498 renal it was > 48 µM and 59.5 µM. Moreover, the GI50 with A498 renal is 1.05 µM and 4.61 µM.

For the origin of these results see PubChem BioAssay (NCI).
